Data published in patent publication US20060057236A1, “Process for producing an extract of ivy leaves” (priority 2003, published 2006).

Key:
β-adrenergic receptors = assay: inhibition of internalization of β-adrenergic receptors (receptor/ligand complex) into the cell; assay type: cell-based; conditions: studies carried out by the applicant; result in words
β-adrenergic receptor = assay: direct action on the β-adrenergic receptor; conditions: studies carried out by the applicant; result in words

With `C[C@@H]1O[C@@H](O[C@H]2[C@H](O[C@H]3CC[C@@]4(C)[C@@H](CC[C@]5(C)[C@@H]4CC=C4[C@@H]6CC(C)(C)CC[C@]6(C(=O)O[C@@H]6O[C@H](CO[C@@H]7O[C@H](CO)[C@@H](O[C@@H]8O[C@@H](C)[C@H](O)[C@@H](O)[C@H]8O)[C@H](O)[C@H]7O)[C@@H](O)[C@H](O)[C@H]6O)CC[C@]45C)[C@]3(C)CO)OC[C@H](O)[C@@H]2O)[C@H](O)[C@H](O)[C@H]1O` [hederacoside C] the “inhibition of the process of internalizing β-adrenergic receptors” value (shortened to “inhibition”) (β-adrenergic receptors) was “unable to inhibit the process of internalization”.
`CC1(C)CC[C@]2(C(=O)O)CC[C@]3(C)C(=CC[C@@H]4[C@@]5(C)CC[C@H](O)[C@@](C)(CO)[C@@H]5CC[C@]43C)[C@@H]2C1` [hederagenin] was tested, and the “inhibition” value (β-adrenergic receptors) was “unable to inhibit the process of internalization”.
`C[C@@H]1O[C@@H](O[C@H]2[C@H](O[C@H]3CC[C@@]4(C)[C@@H](CC[C@]5(C)[C@@H]4CC=C4[C@@H]6CC(C)(C)CC[C@]6(C(=O)O)CC[C@]45C)[C@]3(C)CO)OC[C@H](O)[C@@H]2O)[C@H](O)[C@H](O)[C@H]1O` [α-hederin] was tested, and the “inhibition” value (β-adrenergic receptors) was “inhibits the process of internalizing β-adrenergic receptors in a specific manner” and the “direct attack on the β-adrenergic receptor” value (β-adrenergic receptor) was “does not attack the β-adrenergic receptor directly”.
